# Tests used:
# Format in all cases: in vivo
# [1] = test system: Neotropical Brown Stink Bug (Euschistus heros (Fab)); assay: Test H: control of Neotropical Brown Stink Bug on sprayed green bean pieces; settings: sprayed at 250 ppm; 3rd instar nymphs; 5 days
# Description: (§1) Test compounds were formulated using a solution containing 10% acetone, 90% water and 300 ppm Activator 90@ non-ionic surfactant (Loveland Products, Loveland, Colorado, USA). The formulated compounds were applied in 1 mL of liquid through an atomized nozzle positioned 1.27 cm (0.5 inches) above the top of each test unit. Test compounds were sprayed at the rates indicated, and each test was replicated three times.
# For evaluating control of Neotropical Brown Stink Bug (Euschistus heros (Fab)) through contact and/or systemic means, the test unit consisted of a petri dish with two, ˜2 cm pieces of green bean inside.
# Test compounds were formulated and sprayed at 250, 50 and 10 ppm. After spraying of the formulated test compound, the test units were allowed to dry for 1 h before they were post-infested with 10 3rd instar nymphs. A fine mesh screen was secured to the petri dish, the test units were held for 5 days in a growth chamber at 28° C. and 65% relative humidity. Each test unit was then visually assessed for insect mortality after five days.
# [2] = test system: silverleaf whitefly (Bemisia argentifolii (Bellows and Perring)); assay: Test F: control of silverleaf whitefly on sprayed soybean plant; settings: 288 h, pre-infested (oviposition), 12 days; for mortality at 250 ppm: sprayed at 250 ppm; for mortality at 50 ppm: sprayed at 50 ppm
# Description: as §1
# For evaluating control of silverleaf whitefly (Bemisia argentifolii (Bellows and Perring)) through contact and/or systemic means, each test unit consisted of a small open container with a 5-7 day old soybean plant inside. This was pre-infested by placing test units into cages containing adult whiteflies so that oviposition on the leaves could occur. The adults were removed from the plants with an air-blast nozzle, and the test units were capped. The test units were then stored 2 to 3 days before spraying.
# Test compounds were formulated and sprayed at 250 and 50 ppm. After spraying, the test units were maintained in a growth chamber for 12 days at 23° C. and 70% relative humidity. Each test unit was then visually assessed for insect mortality.
# [3] = test system: Corn Planthopper (Peregrinus maidis (Ashmead)); assay: Test B: control of Corn Planthopper on sprayed corn plant; settings: 144 h, nymphs, 6 days; for mortality at 10 ppm: sprayed at 10 ppm; for mortality at 50 ppm: sprayed at 50 ppm; for mortality at 250 ppm: sprayed at 250 ppm
# Description: as §1
# For evaluating control of Corn Planthopper (Peregrinus maidis (Ashmead)) through contact and/or systemic means, the test unit consisted of a small open container with a 3-4-day-old corn (maize) plant inside. White sand was added to the top of the soil prior to application of the test compound.
# Test compounds were formulated and sprayed at 250, 50 and 10 ppm. After spraying of the formulated test compound, the test units were allowed to dry for 1 h before they were post-infested with ˜15-20 nymphs (18-to-21-day-old). A black, screened cap was placed on the top of each test unit, and the test units were held for 6 days in a growth chamber at 22-24° C. and 50-70% relative humidity. Each test unit was then visually assessed for insect mortality.
# [4] = test system: Green Peach Aphid (Myzus persicae (Sulzer)); assay: Test D: control of Green Peach Aphid on sprayed radish plant; settings: 144 h, pre-infested, 6 days; for mortality at 250 ppm: sprayed at 250 ppm; for mortality at 50 ppm: sprayed at 50 ppm
# Description: as §1
# For evaluating control of Green Peach Aphid (Myzus persicae (Sulzer)) through contact and/or systemic means, the test unit consisted of a small open container with a 12-15-day-old radish plant inside. Prior to compound application, each test unit was pre-infested by placing on a leaf of the test plant 30-40 aphids on a piece of leaf excised from a culture plant (cut-leaf method). The aphids moved onto the test plant as the leaf piece desiccated. After pre-infestation, the soil of the test unit was covered with a layer of sand.
# Test compounds were formulated and sprayed at 250 and 50 ppm. After spraying of the formulated test compound, each test unit was allowed to dry for 1 hour and then a black, screened cap was placed on top. The test units were held for 6 days in a growth chamber at 19-21° C. and 50-70% relative humidity. Each test unit was then visually assessed for insect mortality.
# [5] = test system: cotton melon aphid (Aphis gossypii (Glover)); assay: Test E: control of cotton melon aphid on sprayed okra plant; settings: 144 h, pre-infested, 6 days; for mortality at 50 ppm: sprayed at 50 ppm; for mortality at 2 ppm: sprayed at 2 ppm; for mortality at 250 ppm: sprayed at 250 ppm
# Description: as §1
# For evaluating control of cotton melon aphid (Aphis gossypii (Glover)) through contact and/or systemic means, the test unit consisted of a small open container with a 5-day-old okra plant inside. This was pre-infested with 30-40 insects on a piece of leaf according to the cut-leaf method, and the soil of the test unit was covered with a layer of sand.
# Test compounds were formulated and sprayed at 250, 50, 10 and 2 ppm. After spraying, the test units were maintained in a growth chamber for 6 days at 19° C. and 70% relative humidity. Each test unit was then visually assessed for insect mortality.
# [6] = test system: Potato Leafhopper (Empoasca fabae (Harris)); assay: Test C: control of Potato Leafhopper on sprayed bean plant; settings: 144 h, adults, 6 days; for mortality at 250 ppm: sprayed at 250 ppm
# Description: as §1
# For evaluating control of Potato Leafhopper (Empoasca fabae (Harris)) through contact and/or systemic means, the test unit consisted of a small open container with a 5-6-day-old bean plant inside. White sand was added to the top of the soil, and one of the primary leaves was excised prior to application of the test compound.
# Test compounds were formulated and sprayed at 250 and 50 ppm. After spraying of the formulated test compound, the test units were allowed to dry for 1 hour before they were post-infested with 5 potato leafhoppers (18-to-21-day-old adults). A black, screened cap was placed on the top of the test unit, and the test units were held for 6 days in a growth chamber at 20° C. and 70% relative humidity. Each test unit was then visually assessed for insect mortality.
SMILES,mortality at 250 ppm [2],mortality at 250 ppm [4],mortality at 50 ppm [5],mortality at 50 ppm [3],mortality at 250 ppm [3],also measured
CCC#CCn1cc(-c2ccc(C)cc2)nn1 [Compound 18],–,–,–,–,–,mortality [1]: at least 50%
"CCC#CCn1nnc(-c2ccc(F)cc2)n1 [Compound 41, 5-(4-fluorophenyl)-2-(2-pentyn-1-yl)-2H-tetrazole]",≥ 50%,≥ 80%,≥ 80%,–,–,mortality at 10 ppm [3]: ≥ 80%
"CCC#CCn1nnc(-c2cc(F)cc(F)c2)n1 [Compound 65, 5-(3,5-difluorophenyl)-2-(2-pentyn-1-yl)-2H-tetrazole]",≥ 50%,–,–,≥ 80%,–,mortality at 50 ppm [4]: ≥ 80%; mortality at 2 ppm [5]: ≥ 80%
"CCC#CCn1ncc(-c2ccc(C(F)(F)F)cc2)n1 [Compound 103, 2-(2-Pentyn-1-yl)-4-[4-(trifluoromethyl)phenyl]-2H-1,2,3-triazole]",≥ 50%,≥ 80%,≥ 80%,≥ 80%,–,mortality at 250 ppm [6]: ≥ 80%
CC(C)C#CCn1ncc(-c2ccc(C(F)(F)F)cc2)n1 [Compound 139],–,–,–,–,≥ 80%,mortality at 250 ppm [5]: ≥ 80%; mortality at 250 ppm [6]: ≥ 80%
CCC#CCn1ncc(-c2cncc(F)c2)n1 [Compound 155],–,≥ 80%,≥ 80%,≥ 80%,–,mortality at 250 ppm [6]: ≥ 80%
CCC#CCn1ncc(-c2ccc(Cl)nc2)n1 [Compound 157],≥ 50%,≥ 80%,≥ 80%,≥ 80%,–,–
CCC#CCn1cc(-c2ccc(F)nc2)nn1 [Compound 158],–,–,–,–,–,mortality at 250 ppm [5]: ≥ 80%; mortality at 50 ppm ([6]; sprayed at 50 ppm): ≥ 80%
"CCC#CCn1ncc(-c2ccc(F)nc2)n1 [Compound 159, 2-Fluoro-5-[2-(2-pentyn-1-yl)-2H-1,2,3-triazol-4-yl]pyridine]",–,–,≥ 80%,≥ 80%,–,mortality at 250 ppm [6]: ≥ 80%
"CCC#CCn1nnc(-c2ccc(Br)c(Cl)c2)n1 [Compound 164, 5-(4-Bromo-3-chlorophenyl)-2-(2-pentyn-1-yl)-2H-tetrazole]",–,≥ 80%,≥ 80%,–,≥ 80%,mortality at 50 ppm [2]: ≥ 50%
"CCC#CCn1nnc(-c2ccc3occc3c2)n1 [Compound 193, 5-(5-Benzofuranyl)-2-(2-pentyn-1-yl)-2H-tetrazole]",≥ 50%,≥ 80%,≥ 80%,≥ 80%,–,–
CCC#CCn1nnc(-n2cc(Cl)cn2)n1 [Compound 306],≥ 50%,≥ 80%,≥ 80%,–,≥ 80%,–
"CCC#CCn1nnc(-c2ccc(Cl)c(F)c2)n1 [Compound 308, 5-(4-Chloro-3-fluorophenyl)-2-(2-pentyn-1-yl)-2H-tetrazole]",–,–,–,–,≥ 80%,mortality at 50 ppm [2]: ≥ 50%; mortality at 50 ppm [4]: ≥ 80%; mortality at 10 ppm ([5]; sprayed at 10 ppm): ≥ 80%
"CCC#CCn1nnc(-c2cc(F)c(F)c(F)c2)n1 [Compound 313, 2-(2-Pentyn-1-yl)-5-(3,4,5-trifluorophenyl)-2H-tetrazole]",≥ 50%,–,–,–,–,mortality at 10 ppm [3]: ≥ 80%; mortality at 50 ppm [4]: ≥ 80%; mortality at 2 ppm [5]: ≥ 80%
"CCC#CCn1nnc(-c2ccc(C(F)(F)F)c(Br)c2)n1 [Compound 325, 5-[3-Bromo-4-(trifluoromethyl)phenyl]-2-(2-pentyn-1-yl)-2H-tetrazole]",–,–,≥ 80%,–,≥ 80%,mortality at 50 ppm [2]: ≥ 50%; mortality at 50 ppm [4]: ≥ 80%
